Source: US7517857B2, “Immune-modulating peptide” (POSCO, priority 2002, dated 2009)
Where a SMILES comes first, the peptide text is derived from it. [ ]: non-standard residue; d: D form.

Tests used:
EL4, lymphoma cells = assay: Tumor growth in EL4-injected C57/BL6 mice; type: in vivo; conditions: EL4 2×10^5 cells/mouse s.c.
Experimental: (§1) CT26, EL4 were maintained at 37° C. in a humidified 5% CO2 atmosphere in RPMA1640 medium supplemented with 20% (vol/vol) heat-inactivated fetal bovine serum. For animal experiments, the cells were passaged two to five times after re-growth from frozen stocks. Log phase CT26 cells were detached from tissue culture flasks with 0.25% trypsin and 0.03% EDTA. CT26 and EL4 were washed and resuspended in PBS immediately before injection.
To confirm the antitumor effect of WRYMVm, another tumor model, EL4, lymphoma cells was tested. In order to form the tumor mass of EL4, EL4 (2×10^5 cells/mouse) were injected s.c to C57/BL6 mice. […] Overall, it appears obvious that WRYMVm has a tumor growth-suppressing effect in mice model.

FPRL1 = target: T1, FPRL1 (Homo sapiens, UniProt P25090); assay: [Ca2+]i increase in FPRL1-expressing RBL-2H3 cells (fura-2); type: cell-based
T1 construct: expressed in transfected cells; host or cells: RBL-2H3 (rat basophilic leukemia) cells, G418-selected
T1 sequence (P25090 1-351): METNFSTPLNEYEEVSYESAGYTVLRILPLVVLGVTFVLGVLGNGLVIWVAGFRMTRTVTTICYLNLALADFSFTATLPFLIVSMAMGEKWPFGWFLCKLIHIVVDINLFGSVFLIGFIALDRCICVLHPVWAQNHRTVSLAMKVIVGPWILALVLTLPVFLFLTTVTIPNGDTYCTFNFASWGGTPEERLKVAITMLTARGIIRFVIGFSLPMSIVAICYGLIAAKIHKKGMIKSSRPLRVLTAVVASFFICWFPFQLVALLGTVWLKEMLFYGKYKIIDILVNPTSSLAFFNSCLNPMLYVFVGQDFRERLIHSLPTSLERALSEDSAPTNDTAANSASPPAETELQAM
Experimental: […] The level of [Ca^2+]i was determined fluorometrically by Grynkiewicz's method using fura-2/AM (15). Briefly, prepared cells were incubated with 3 μM fura-2/AM at 37° C. for 50 min in a fresh serum-free RPMI 1640 medium under continuous stirring. 2×10^6 cells were aliquoted for each assay in Ca^2+-free Locke's solution (154 mM NaCl, 5.6 mM KCl, 1.2 mM MgCl2, 5 mM HEPES, pH 7.3, 10 mM glucose, and 0.2 mM EGTA). Fluorescence changes at the dual excitation wavelengths of 340 nm and 380 nm and the emission wavelength of 500 nm were measured, and the calibrated fluorescence ratio was translated into [Ca^2+]i. The peak level of the increased [Ca^2+]i was monitored.
[…] The level of [Ca^2+]i was determined by the same procedures as above. The peak level of the increased [Ca^2+]i was monitored.

human neutrophils = assay: Superoxide generation in human neutrophils (cytochrome c reduction); type: cell-based; conditions: for O^2− (nmol/10^6 cells), superoxide generation: cytochrome c reduction
Experimental: Peripheral blood leukocyte concentrates were donated by the Ulsan Red Cross Blood Center (Ulsan, Korea). Human neutrophils were isolated according to the standard procedures of dextran sedimentation, hypotonic lysis of erythrocytes, and a lymphocyte separation medium gradient as described above (9). The isolated human neutrophils were then used promptly.
The activity of the peptides, WKYMVm, peptides of SEQ ID NOs: 1 to 24, and wkymvm on superoxide generation in human neutrophils was measured. Superoxide anion generation was quantified by measuring reduction of cytochrome c using a microtiter 96-well plate ELISA reader (Bio-Tekinstruments, EL312e, Winooski, Vt.) as described (14). The human neutrophils (1×10^6 cells/100 μl of RPMI 1640 medium per well of a 96-well plate) were preincubated with 50 μM cytochrome c at 37° C. for 1 min and then incubated with the indicated concentrations of peptides. The superoxide generation was measured as a change in light absorption at 550 nm over 5 minutes at 1 min intervals. From at least four independent experiments, peptides with active amino acids at each position were chosen.

tumor = conditions: vincristine i.p. 2 μg/mouse 8 hours prior to peptide injection
Experimental: Specific pathogen free male Balb/c mice and C57/BL6 mice were purchased from Hyo Chang Bioscience (Taegu, Korea). All mice were maintained under specific pathogen-free conditions in the animal facility of the Immunomodulation Research Center, University of Ulsan, Korea and used at 6-8 week of age. CT26 and EL4 were injected s.c. to Balb/c mice and C57/BL6 mice respectively, on day 0. WRYMVm (SEQ ID NO: 4) and CpG ODN were administered systemically (i.p.; 200 μl) from day six for every 4 days while a control group received PBS or 100 μg/mice for CpG ODN. Vincristine was administered via i.p. injection on the same days just before 8 hours from peptide or CpG ODN injection. On every 2 days after inoculation, tumor mass was measured using digital Varier calipers. Tumor volumes were calculated as [length×width×height×π/6]. The date of death is recorded as the date when mice spontaneously succumbed to tumor or were sacrificed because of a moribund state, or when the tumor width measured 20 mm (a width at which the tumor is not going to regress).
The results are expressed as the mean SE from the 10 mice/group. In the FIGS. 9 to 12, * indicates p<0.01 and ** indicates p<0.05 in comparison with values obtained from vehicle (PBS) treated control.
Therefore, i.p. 2 μg/mouse of vincristine was injected 8 hours prior to the peptide injection.

CT26, colon carcinoma = assay: Tumor growth in CT26-injected Balb/c mice; type: in vivo
Experimental: as §1
In order to assess the antitumor effect of immuno-modulating peptide, Trp-Arg-Tyr-Met-Val-D-Met-CONH2, (WRYMVm; (SEQ ID NO: 4)), CT26, colon carcinoma was tested in Balb/c mice model. Tumor mass was measured in size every two days after 6 days from tumor cell inoculation.
To find the effective tumor-suppressing dose of WRYMVm, 0.1 μg/mouse, 0.25 μg/mouse, and 1 μg/mouse of WRYMVm were administered to CT26/Balb/c model. […] A similar phenomenon is easily found in chemotactic migration of leukocytes. In view of the fact that FPRL1, which is a target receptor for WRYMVm, is related to the chemotactic migration event, it is concluded that WRYMVm-induced antitumor effect might be derived from leukocyte infiltration event. Therefore, it is quite necessary to reveal the direct relationship between the WRYMVm-induced antitumor effect and the leukocyte infiltration event.

## CSCC[C@H](NC(=O)[C@H](Cc1ccc(O)cc1)NC(=O)[C@H](CCCNC(=N)N)NC(=O)[C@@H](N)Cc1c[nH]c2ccccc12)C(=O)N[C@H](C(=O)N[C@H](CCSC)C(N)=O)C(C)C [WRYMVm-NH2, Trp-Arg-Tyr-Met-Val-D-Met-NH2] (H-WRYMV[dM]-NH2; N-terminus assumed)
EL4, lymphoma cells
  tumor mass suppression: able to suppress tumor mass of EL4
FPRL1
  [Ca^2+]i increasing activity: higher affinity to FPRL1
FPRL1; fura-2 loaded, read-out: EC50 (nM), intracellular calcium increase
  EC50: 0.12 ± 0.01 nM
Human neutrophils; 100 nM of peptides
  superoxide generating activity: stimulated superoxide generation
Human neutrophils; peptide 100 nM
  O^2− (nmol/10^6 cells), superoxide generation: 47.1 ± 11.23 nmol/10^6 cells
Human neutrophils; peptide 10 μM
  O^2− (nmol/10^6 cells), superoxide generation: 38.2 ± 6.54 nmol/10^6 cells
tumor
  tumor growth suppression / antitumor activity: ability to suppress tumor growth
CT26, colon carcinoma; 0.1 μg/mouse, compared with 0.25 and 1 μg/mouse
  tumor suppression: highest effectiveness in the tumor suppression
CT26, colon carcinoma; 1 μg/mouse
  tumor suppression: the tumor suppressing effect was lowered
CT26, colon carcinoma; FIGS. 9A and 9B
  tumor growth in CT26-injected mice (figure legend): attenuates tumor growth
